Results: the NIST ThermoML archive (doi:10.1016/j.jct.2013.08.022)
“And” between values parts separate entries of the source, which are not always exact repeats. Equal values may be shown once. ± gives the expanded uncertainty stated by the source.

Settings: Crystal, Closed cell (Static) method

c1ccccc1 [benzene]
Settings	vapor or sublimation pressure
233.2 K	0.09891 ± 0.002 kPa and 0.09902 ± 0.002 kPa and 0.09885 ± 0.002 kPa
235.7 K	0.1277 ± 0.0025 kPa
238.21 K	0.1641 ± 0.0027 kPa
240.7 K	0.2093 ± 0.0033 kPa and 0.2094 ± 0.0033 kPa and 0.2095 ± 0.0033 kPa
243.2 K	0.2655 ± 0.004 kPa and 0.2656 ± 0.004 kPa
245.68 K	0.3351 ± 0.0049 kPa and 0.3352 ± 0.0049 kPa and 0.335 ± 0.0049 kPa
248.18 K	0.4206 ± 0.0059 kPa and 0.4205 ± 0.0059 kPa
250.68 K	0.5253 ± 0.0073 kPa and 0.5257 ± 0.0073 kPa
253.17 K	0.6533 ± 0.0089 kPa and 0.6532 ± 0.0089 kPa and 0.6543 ± 0.0089 kPa
255.67 K	0.8095 ± 0.011 kPa and 0.8096 ± 0.011 kPa and 0.8092 ± 0.011 kPa
258.16 K	0.9997 ± 0.013 kPa and 0.9995 ± 0.013 kPa and 0.9994 ± 0.013 kPa
260.68 K	1.231 ± 0.016 kPa and 1.229 ± 0.016 kPa
